What was measured:
[1] = system: BGC-823; test: Cytotoxicity against human BGC-823 cells by MTT assay; format: functional, cell-based
[2] = system: HCT-116; test: Cytotoxicity against human HCT-116 cells by MTT assay; format: functional, cell-based
[3] = system: HepG2; test: Cytotoxicity against human HepG2 cells by MTT assay; format: functional, cell-based
[4] = system: PANC-1; test: Cytotoxicity against human Panc-1 cells incubated for 72 hrs by sulphorhodamine B assay; format: functional, cell-based; settings: PANC-1, 72 h
[5] = system: MDA-MB-231; test: Cytotoxicity against human MDA-MB-231 cells incubated for 72 hrs by MTT assay; format: functional, cell-based; settings: MDA-MB-231, 72 h
[6] = system: SW1990; test: Antiproliferative activity against human SW1990 incubated for 72 hrs by sulphorhodamine B assay; format: functional, cell-based; settings: SW1990, 72 h
[7] = system: MCF7; test: Cytotoxicity against human MCF-7 cells incubated for 72 hrs by MTT assay; format: functional, cell-based; settings: MCF7, 72 h
[8] = system: HCT-15; test: Cytotoxicity against human HCT-15 cells by SRB staining assay; format: functional, cell-based
[9] = system: SK-MEL-2; test: Cytotoxicity against human SK-MEL-2 cells by SRB staining assay; format: functional, cell-based
[10] = system: SK-OV-3; test: Cytotoxicity against human SK-OV-3 cells by SRB staining assay; format: functional, cell-based
[11] = system: A549; test: Cytotoxicity against human A549 cells by SRB staining assay; format: functional, cell-based
[12] = system: XF498; test: Cytotoxicity against human XF498 cells by SRB staining assay; format: functional, cell-based
[13] = Inhibition of PAFR in New Zealand rabbit platelets assessed as reduction in PAF-induced platelet aggregation measured within 5 mins by aggregometry analysis; format: tissue-based; settings: Oryctolagus cuniculus
[14] = Inhibition of [3H]PAF-acether binding to PAFR in rabbit platelet plasma membranes incubated for 1 hr; format: cell membranes, Oryctolagus cuniculus, Cell membrane
[15] = system: A549; test: Antiproliferative activity against human A549 cells incubated for 72 hrs by Sulforhodamine B assay; format: functional, cell-based; settings: A549, 72 h
[16] = Antiproliferative activity against human U87-MG cells incubated for 72 hrs by Sulforhodamine B assay; format: functional, cell-based; settings: U-87 MG
[17] = system: A-431; test: Antiproliferative activity against human A-431 cells incubated for 72 hrs by Sulforhodamine B assay; format: functional, cell-based; settings: A-431, 72 h
[18] = system: P388; test: Cytotoxicity against mouse P388 cells incubated for 48 hrs by MTT assay; format: functional, cell-based; settings: P388, 48 h
[19] = system: HCT-116; test: Antiproliferative activity against human HCT-116 cells incubated for 72 hrs by WST-1 assay; format: functional, cell-based; settings: HCT-116, 72 h
[20] = system: AGS; test: Cytotoxicity against human AGS cells incubated for 48 hrs by MTT assay; format: functional, cell-based
[21] = system: HepG2; test: Cytotoxicity against human HepG2 cells incubated for 48 hrs by MTT assay; format: functional, cell-based; settings: HepG2, 48 h
[22] = system: HeLa; test: Cytotoxicity against human HeLa cells incubated for 48 hrs by MTT assay; format: functional, cell-based
[23] = system: PANC-1; test: Cytotoxicity against human Panc-1 cells incubated for 48 hrs by MTT assay; format: functional, cell-based; settings: PANC-1, 48 h
[24] = system: MDA-MB-231; test: Cytotoxicity against human MDA-MB-231 cells incubated for 48 hrs by MTT assay; format: functional, cell-based; settings: MDA-MB-231, 48 h
[25] = system: LNCaP C4-2B; test: Cytotoxicity against human LNCaP C4-2B cells incubated for 48 hrs by MTT assay; format: functional, cell-based
[26] = system: HCT-15; test: Cytotoxicity against human HCT-15 cells incubated for 48 hrs by MTT assay; format: functional, cell-based; settings: HCT-15, 48 h
[27] = system: MDA-MB-435; test: Antiproliferative activity against human MDA-MB-435 cells incubated for 48 hrs by [3H]-thymidine incorporation assay; format: functional, cell-based
[28] = system: MCF7; test: Antiproliferative activity against human MCF7 cells incubated for 48 hrs by [3H]-thymidine incorporation assay; format: functional, cell-based
[29] = Antiproliferative activity against human Panc-28 cells incubated for 72 hrs by MTT assay; format: functional, cell-based; settings: MDA-Panc-28, 72 h
[30] = system: MCF7; test: Cytotoxicity against human MCF7 cells incubated for 48 hrs by alamarblue reagent based assay; format: functional, cell-based; settings: MCF7, 48 h
[31] = system: HepG2; test: Cytotoxicity against human HepG2 cells incubated for 48 hrs by alamarblue reagent based assay; format: functional, cell-based; settings: HepG2, 48 h
[32] = system: L1210; test: Cytotoxicity against mouse L1210 cells; format: functional, cell-based

CC(C)[C@]12O[C@H]1[C@@H]1O[C@]13[C@]1(O[C@H]1C[C@H]1C4=C(C(=O)OC4)[C@@H](O)C[C@@]13C)[C@@H]2O [TRIPDIOLIDE]
IC50 [1]: 910 nM
IC50 [2]: 730 nM
IC50 [3]: 1700 nM

COC(=O)[C@@]12OC[C@]34[C@H]([C@@H](O)[C@@H]1O)[C@@]1(C)C=C(O[C@@H]5O[C@H](CO)[C@@H](O)[C@H](O)[C@H]5O)C(=O)[C@@H](C)[C@@H]1C[C@H]3OC(=O)[C@H](OC(=O)CC(C)C)[C@@H]24
IC50 [4]: > 100000 nM
IC50 [5]: > 50000 nM
IC50 [6]: > 100000 nM
IC50 [7]: > 50000 nM

CC(=O)O[C@@H]1C[C@H](O)[C@@]23COC(O)[C@]1(C)[C@@H]2C[C@@H](O)[C@@]1(C)[C@@H]2C(=O)C[C@@H](c4ccoc4)[C@]2(C)[C@@H](O)C(=O)[C@@H]13 (stereo partly specified)
IC50 [8]: 3000 nM
IC50 [9]: 710 nM
IC50 [10]: 26 µM
IC50 [11]: 1700 nM
IC50 [12]: 3.8 µM

C[C@@H]1C(=O)O[C@H]2[C@H](O)[C@]34[C@@H]5OC(=O)[C@]3(O[C@@H]3OC(=O)[C@H](O)[C@@]34[C@H](C(C)(C)C)[C@H]5O)[C@@]12O
IC50 [13]: 7.5 µM
IC50 [14]: 17 µM

C[C@H](CO)[C@H]1OC(=O)C=C2[C@@]13O[C@@H]3[C@H]1OC(=O)[C@@]3(C)[C@@H](O)CC[C@@]2(C)[C@@H]13
IC50 [15]: 1100 nM
IC50 [16]: 4000 nM
IC50 [17]: 4600 nM

CC(C)[C@H]1OC(=O)C=C2[C@@]13O[C@@H]3[C@H]1OC(=O)[C@@]3(C)CCC[C@@]2(C)[C@@H]13
IC50 [18]: 240 nM

C[C@@H]1C(=O)O[C@H]2C[C@@]34[C@H]5C[C@@H](C(C)(C)C)[C@]36[C@@H](OC(=O)[C@@H]6O)O[C@@]4(C(=O)O5)[C@]21O [GINKGOLIDE A]
IC50 [13]: 0.58 µM
IC50 [14]: 0.94 µM

COC(=O)[C@@]12OC[C@]34[C@H]([C@@H](O)[C@@H]1O)[C@@]1(C)CC(=O)C(O)=C(C)[C@@H]1C[C@H]3OC(=O)[C@H](OC(=O)/C=C(\C)C(C)(C)OC(C)=O)[C@@H]24
IC50 [5]: 88 nM
IC50 [19]: 50 nM
IC50 [7]: 63 nM

COC(=O)[C@@]12OC[C@]34[C@H]([C@@H](O)[C@@H]1O)[C@@]1(C)C=C(O[C@@H]5O[C@H](CO)[C@@H](O)[C@H](O)[C@H]5O)C(=O)[C@@H](C)[C@@H]1C[C@H]3OC(=O)[C@H](OC(=O)/C=C(\C)C(C)C)[C@@H]24
IC50 [4]: > 10000 nM
IC50 [6]: > 10000 nM

CC(C)[C@H]1OC(=O)C=C2[C@@]13O[C@@H]3[C@H]1OC(=O)[C@@]3(C)C[C@@H](O)C[C@@]2(C)[C@@H]13
IC50 [15]: 570 nM
IC50 [16]: 430 nM
IC50 [20]: 1400 nM
IC50 [21]: 3.1 µM
IC50 [22]: 600 nM
IC50 [23]: > 40 µM
IC50 [17]: 210 nM
IC50 [24]: > 40 µM

C[C@H](CO[C@@H]1O[C@H](CO)[C@@H](O)[C@H](O)[C@H]1O)[C@H]1OC(=O)C=C2[C@@]13O[C@@H]3[C@H]1OC(=O)[C@@]3(C)[C@@H](O)CC[C@@]2(C)[C@@H]13
IC50 [15]: > 50000 nM
IC50 [16]: > 50000 nM
IC50 [17]: > 50000 nM

CC1(C)CCC[C@]2(C)[C@@H]1CC[C@@]13O[C@@H]1C1=C(CO)C(=O)OC1=C[C@@H]23
IC50 [25]: 2.2 µM
IC50 [26]: 13 µM
IC50 [24]: 8.8 µM

COC(=O)[C@@]12OC[C@]34[C@H]([C@@H](O)[C@@H]1O)[C@@]1(C)CC(=O)C(O)=C(C)[C@@H]1C[C@H]3OC(=O)[C@H](OC(=O)C=C(C)C)[C@@H]24
IC50 [4]: 360 nM
IC50 [5]: 81 nM
IC50 [19]: 67 nM
IC50 [6]: 100 nM
IC50 [7]: 83 nM

CC1(C)O[C@H]2CC(=O)OC[C@]23[C@H]2CC[C@@](C)([C@@H](O[C@H]4O[C@H](CO)[C@@H](O)[C@H](O)[C@H]4O)c4ccoc4)[C@@]4(O[C@@H]4C(=O)O)[C@]2(C)C(=O)C[C@@H]13
IC50 [27]: 119 µM
IC50 [28]: 55 µM
IC50 [29]: 20 µM

CC1(C)CCC[C@]2(C)[C@@H]1CC[C@@]13O[C@@H]1C1=C(CO)C(=O)O[C@]14O[C@@H]4[C@@H]23
IC50 [25]: 12 µM
IC50 [26]: > 50 µM
IC50 [24]: > 50 µM

CC(C)[C@]1(O)[C@H](O)[C@@H]2O[C@]23[C@]2(O[C@H]2C[C@H]2C4=C(CC[C@@]23C)C(=O)OC4)[C@@H]1O
IC50 [1]: > 10000 nM
IC50 [2]: > 10000 nM
IC50 [3]: > 10000 nM

C=C1C(=O)O[C@@H]2C3O[C@]3(C)CC/C=C(\C)CC[C@@H]12 (stereo partly specified)
IC50 [30]: 11 µM
IC50 [31]: 17000 nM

CC1(C)O[C@H]2CC(=O)OC[C@]23[C@H]2CC[C@@]4(C)[C@H](C5=CC(=O)OC5O)OC(=O)[C@H]5O[C@]54[C@]2(C)C(=O)C[C@@H]13 (stereo partly specified)
IC50 [29]: 22 µM

C=C1[C@@H](O)[C@@]2(O)OC[C@@]34[C@H]1[C@@H](OC(=O)/C=C/CCCCCCCC)C(=O)O[C@@H]3C[C@H]1C(C)=CC(=O)[C@@H](O)[C@]1(C)[C@@H]24
IC50 [32]: 90 nM

C/C1=C\CC[C@@]2(C)O[C@H]2[C@H]2OC(=O)C(CNC(Cc3ccc(N(CCCl)CCCl)cc3)C(=O)O)[C@@H]2CC1 (stereo partly specified)
IC50 [30]: 1.8 µM
IC50 [31]: 260 nM

CC1=CC(=O)[C@@H](O)[C@]2(C)[C@H]3[C@@H](O)[C@H](O)[C@@]4(C)OC[C@@]35[C@@H](C[C@@H]12)OC(=O)[C@H](O)[C@]54O
IC50 [4]: 1300 nM
IC50 [5]: 24000 nM
IC50 [6]: 2100 nM
IC50 [7]: 19000 nM

C[C@H](CO)[C@H]1OC(=O)C=C2[C@@]13O[C@@H]3[C@H]1OC(=O)[C@@]3(C)C[C@@H](O)C[C@@]2(C)[C@@H]13
IC50 [15]: 1400 nM
IC50 [16]: 1400 nM
IC50 [17]: 1700 nM

CC(C)(O)[C@]12O[C@H]1[C@@H]1O[C@]13[C@]1(O[C@H]1C[C@H]1C4=C(CC[C@@]13C)C(=O)OC4)[C@@H]2O
IC50 [1]: 200 nM
IC50 [2]: 390 nM
IC50 [3]: 770 nM

CC1=C2C(=C[C@H]3[C@]4(C)CCCC(C)(C)[C@H]4CC[C@]34O[C@H]24)OC1=O
IC50 [25]: 10 µM
IC50 [26]: > 50 µM
IC50 [24]: > 50 µM

C/C1=C\CC[C@@]2(C)O[C@H]2[C@H]2OC(=O)C(CNc3ccn(C4OC(CO)[C@H](O)[C@@H]4O)c(=O)n3)[C@@H]2CC1 (stereo partly specified)
IC50 [30]: 5.2 µM
IC50 [31]: 240 nM

CC1(C)O[C@H]2CC(=O)OC[C@]23[C@H]2CC[C@@]4(C)[C@H](C5=CC(O)OC5=O)OC(=O)[C@H]5O[C@]54[C@]2(C)C(=O)C[C@@H]13 (stereo partly specified)
IC50 [29]: 18 µM

CC1(C)O[C@H]2CC(=O)OC[C@]23[C@H]2CC[C@@]4(C)[C@H](c5ccoc5)OC(=O)[C@H]5O[C@]54[C@]2(C)C(=O)C[C@@H]13 [LIMONIN]
IC50 [27]: 26 µM
IC50 [28]: 4.3 µM
IC50 [29]: 42 µM

C[C@H](CO)[C@H]1OC(=O)C=C2[C@@]3(C)[C@H](O)CC[C@]4(C)C(=O)O[C@H]([C@H]5O[C@@]251)[C@H]34
IC50 [18]: 2100 nM

C=C1[C@@H](O)[C@@]2(O)OC[C@@]34[C@H]1[C@@H](OC(=O)/C=C(\C)CCCCC)C(=O)O[C@@H]3C[C@H]1C(C)=CC(=O)[C@@H](O)[C@]1(C)[C@@H]24
IC50 [32]: 90 nM

COC(=O)[C@@]12OC[C@]34[C@H]([C@@H](O)[C@@H]1O)[C@@]1(C)CC(=O)C(O)=C(C)[C@@H]1C[C@H]3OC(=O)[C@H](OC(=O)/C=C(\C)C(C)(C)O)[C@@H]24
IC50 [19]: 250 nM

Reference: ChEMBL document CHEMBL4706632, “Development of Potential Antitumor Agents from the Scaffolds of Plant-Derived Terpenoid Lactones” (J Med Chem, 2020)
